# Test results from US20080146502A1, “Methods for modulating the sensation of satiety perception and agents useful for same” (Autogen Research Pty Ltd., priority 2004, published 2008).
# Columns and labels:
# [1] = system: TRPV channels; settings: cited from earlier work
# [2] = system: food intake in rats; experiment: Food intake in fasted rats after single intragastric gavage; type: in vivo; settings: for Food Intake: 5 mg/kg in saline, mean ± sem
# Experimental: Adult, male rats were fasted for 16 hours then administered with a single intragastric gavage of 1-[beta-[3-(4-Methoxyphenyl)propoxy]-4-methoxyphenethyl]-1H-imidazole.HCl at a dose of 5 mg/kg in saline in a volume of 0.5 ml, or saline alone (0.5 ml). There were 8 animals in each group. Food intake was measured at various timepoints over the following 24 hours.
# [3] = system: receptor-mediated Ca^2+ entry in neutrophils; settings: cited from earlier work
# [4] = system: receptor-mediated Ca^2+ entry in stimulated platelets; settings: cited from earlier work
# [5] = cited from earlier work
# [6] = system: receptor-mediated Ca^2+ entry in endothelial cells; settings: cited from earlier work
compound,measurement,setting,value
N.N.N.N.N.N.N.N.N.N.N.N.N.N.[Cl-].[Cl-].[Cl-].[Cl-].[Cl-].[Cl-].[O-2].[O-2].[Ru+3].[Ru+3].[Ru+4] [Ruthenium Red],block of TRPV channels,[1],blocks all TRPV channels
COc1ccc(CCCOC(Cn2ccnc2)c2ccc(OC)cc2)cc1 (stereo not drawn) [1-[β-[3-(4-methoxyphenyl)propoxy]-4-methoxyphenethyl]-1H-imidazole],"food intake, trend vs saline","[2]; 5 mg/kg gavage, after 3 h, 5 h, 6 h, 8 h, 9 h, 10 h and 24 h, p<0.10",strong trends for reduced food intake
same,Food Intake,"[2]; 0.5 h after single intragastric gavage, rats fasted 16 h",2.4 ± 0.3 g
same,Food Intake,"[2]; 1 h after single intragastric gavage, rats fasted 16 h",2.8 ± 0.3 g
same,Food Intake,"[2]; 2 h after single intragastric gavage, rats fasted 16 h",2.9 ± 0.3 g
same,Food Intake,"[2]; 3 h after single intragastric gavage, rats fasted 16 h",3.8 ± 0.4 g
same,Food Intake,"[2]; 4 h after single intragastric gavage, rats fasted 16 h",4.9 ± 0.5 g
same,Food Intake,"[2]; 5 h after single intragastric gavage, rats fasted 16 h",5.1 ± 0.5 g
same,Food Intake,"[2]; 6 h after single intragastric gavage, rats fasted 16 h",6.3 ± 0.5 g
same,Food Intake,"[2]; 7 h after single intragastric gavage, rats fasted 16 h",7.4 ± 0.6 g
same,Food Intake,"[2]; 8 h after single intragastric gavage, rats fasted 16 h",8.2 ± 0.6 g
same,Food Intake,"[2]; 9 h after single intragastric gavage, rats fasted 16 h",9.3 ± 0.6 g
same,Food Intake,"[2]; 10 h after single intragastric gavage, rats fasted 16 h",10.3 ± 0.6 g
same,Food Intake,"[2]; 11 h after single intragastric gavage, rats fasted 16 h",11.5 ± 0.6 g
same,Food Intake,"[2]; 12 h after single intragastric gavage, rats fasted 16 h",12.4 ± 0.6 g
same,Food Intake,"[2]; 24 h after single intragastric gavage, rats fasted 16 h",18.4 ± 0.8 g
same,food intake over the period of the study,"[2]; rats fasted 16 h, 5 mg/kg single intragastric gavage in saline vs saline alone, 24 h",reduced food intake over the period of the study
same,inhibition of receptor-mediated Ca^2+ entry,[3],selective inhibitor
same,IC50,[4],8 to 12 µM
same,Solubility in water,[5],30 mg/mL
same,inhibition of receptor-mediated Ca^2+ entry,[6],selective inhibitor
